Values after ≈ are worked out from the molar mass of the structure shown. Where two headings read alike, the source gives them in different places.

One data set in a line: Thermodynamic solubility. To be noted: thermodynamic from solid, 37° C. The data set is classed as physicochemical. The text has this: 4.2. Thermodynamic Solubility
Poor solubility, in particular poor thermodynamic solubility can limit the absorption of compounds from the gastrointestinal tract which in turn may reduce oral bioavailability.
Thermodynamic solubility investigates the solubility of a compound as a saturated solution in equilibrium, by opposition to kinetic solubility, which measures the solubility of a metastable solution where supersaturation may occur and provide over estimation of the actual solubility of the compound. (Klein 2010)
4.2.1. Thermodynamic Solubility—Protocol 1
In a 8 mL glass vial, 1-2 mg of dry matter of compound are added and stirred with the suitable buffers (Fed State Simulated Intestine Fluid, FeSSIF, or Fasted State Simulated Intestine Fluid, FaSSIF, or Fasted State Simulated Gastric Fluid, FaSSGF, or phosphate buffer pH 7.4) for 24 h at r.t. (for the buffer pH 7.4) or 37° C. (for the GI fluids). The concentration of the mixture is 1 mg/mL.
A volume of 500 μL are sampled, centrifuged for 10 min at 10 000 rpm and filtered. The samples are diluted in duplicates in DMSO (F100 and F10). Then, a final dilution (F100) in 80/20 H2O/MeCN containing the internal standard (warfarin) is used for LCMS-MS analysis.
A standard curve is made starting from a 200,000 ng/mL stock in DMSO, freshly prepared from dry matter. Then, successive concentrations at […], 1,000, 200 and 75 ng/mL in DMSO are prepared by using the Tecan robot.
Two quality control samples are made: one of 10,000 ng/mL and one of 500 ng/mL in DMSO, also starting from the DMSO working stock solution at 200,000 ng/mL.
The standard curve and quality controls are diluted a F100 in 80/20 H2O/MeCN (with internal standard) and analyzed on LC/MS-MS (API4000 or API5500).
The samples are analyzed on LC-MS with a flow rate of 0.6 mL/min. The mobile phase A is 0.1% formic acid in water and the mobile phase B is 0.1% formic acid in MeCN. The sample is run under positive or negative ion spray on Pursuit C18-5 μm (2.0×20 mm) column, from Agilent.
The peak areas of the standard curve are plotted in a graph and a linear or polynomial of the second order equation is used to calculate the unknown concentrations of the test compound.
4.2.2. Thermodynamic Solubility—Protocol 2
In an 8 mL glass vial, 1-2 mg of dry matter of compound were added and stirred with the suitable buffers (Fed State Simulated Intestine Fluid, FeSSIF, or Fasted State Simulated Intestine Fluid, FaSSIF, or Fasted State Simulated Gastric Fluid, FaSSGF, or phosphate buffer pH 7.4) for 24 h at r.t. (for the buffer pH 7.4) or 37° C. (for the GI fluids). The concentration of the mixture was 1 mg/mL.
A volume of 1000 μL were sampled, centrifuged for 10 min at 10 000 rpm and 500 μL of the supernatant were filtered on captiva plate. The samples were diluted in duplicates in DMSO (F100 and F10). Then, a final dilution (F100) in 80/20 H2O/MeCN containing the internal standard (warfarin) was used for LCMS-MS analysis.
A standard curve was made starting from a 40,000 ng/mL stock in DMSO, freshly prepared from dry matter. Then, successive concentrations at 15,000, 11,000, 6,000, 2,500, 1,000, 375, 150 and 75 ng/mL in DMSO were prepared.
Three quality control samples were made: one of 10,000, 1,500 and 200 ng/mL in DMSO, also starting from the DMSO working stock solution at 40,000 ng/mL.
The standard curve and quality controls were diluted a F100 in 80/20 H2O/MeCN (with internal standard) and analyzed on LC/MS-MS (API4000 or API5500).
The samples were analyzed on LC-MS with a flow rate of 0.6 mL/min. The mobile phase A was 0.1% formic acid in water and the mobile phase B was 0.1% formic acid in 90% acetonitrile and 10% of water. The sample was run under positive or negative ion spray on Pursuit C18-5 μm (2.0×20 mm) column, from Agilent. […]

The test system of data set [1] is pooled cryopreserved hepatocytes. Briefly: Metabolic stability in hepatocytes (human). The data set is classed as in vitro ADME. To be noted: 1 μM test compound. Put shortly: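 Test compound at 1 μM (0.03% DMSO) incubated with 0.5 million viable pooled cryopreserved hepatocytes/mL at 37° C with shaking; sampled 0–180 min. Parent loss measured by LC-MS/MS versus time-zero, and intrinsic clearance derived from percentage-remaining plots, scaled to L/h/kg and corrected for hepatocyte binding.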

Where [2] appears, read: Fasted State Simulated Intestine Fluid (FaSSIF), fassif, Fasted State Simulated Intestine Fluid, read-out: Tsol FaSSIF.
Setting [3] is: Fasted State Simulated Gastric Fluid (FaSSGF), fassgf or other biorelevant, Fasted State Simulated Gastric Fluid, read-out: Tsol FaSSGF.
[4] abbreviates: Fed State Simulated Intestine Fluid (FeSSIF), fessif, Fed State Simulated Intestine Fluid, read-out: Tsol FeSSIF.

In the case of `COc1cc2nc(CCC(C)(C)O)cn2cc1NC(=O)c1cccn(C2CCC2)c1=O` [Compound 18, 1-cyclobutyl-N-[2-(3-hydroxy-3-methyl-butyl)-7-methoxy-imidazo[1,2-a]pyridin-6-yl]-2-oxo-pyridine-3-carboxamide], the solubility thermodynamic at 24 h in “Thermodynamic solubility” (setting [2]) is 0.253 mg/mL (≈ 596 µM). Also, in data set [1], the “Human (Perc. remaining at 90 min)” value is 93.95%.

For `COc1cc2nc(CCC(C)(C)O)cn2cc1NC(=O)c1cccc(C(C)(F)F)n1` [Compound 20, 6-(1,1-difluoroethyl)-N-[2-(3-hydroxy-3-methyl-butyl)-7-methoxy-imidazo[1,2-a]pyridin-6-yl]pyridine-2-carboxamide], in “Thermodynamic solubility” (setting [2]), the solubility thermodynamic at 24 h is 0.00263 mg/mL (≈ 6.29 µM). Further, in data set [1], the “Human (Perc. remaining at 90 min)” value came to 75.55%.

On to `CCn1cccc(C(=O)Nc2cn3cc(CCC(C)(C)O)nc3cc2OC)c1=O` [Compound 23, 1-ethyl-N-[2-(3-hydroxy-3-methyl-butyl)-7-methoxy-imidazo[1,2-a]pyridin-6-yl]-2-oxo-pyridine-3-carboxamide], for which the solubility thermodynamic at 24 h in “Thermodynamic solubility” (setting [3]) was > 1 mg/mL; in “Thermodynamic solubility” (setting [2]), 0.459 mg/mL (≈ 1150 µM). The “Human (Perc. remaining at 90 min)” value in data set [1] was found to be 91.45%.

For the molecule `COc1cc2nc(CCS(C)(=O)=O)cn2cc1NC(=O)c1cccc(C(F)(F)F)n1` [Compound 24, N-[7-methoxy-2-(2-methylsulfonylethyl)imidazo[1,2-a]pyridin-6-yl]-6-(trifluoromethyl)pyridine-2-carboxamide], the solubility thermodynamic at 24 h was > 1 mg/mL in “Thermodynamic solubility” (setting [3]) and 0.00244 mg/mL (≈ 5.52 µM) in the data set “Thermodynamic solubility” (setting [2]). Moreover, the “Human (Perc. remaining at 90 min)” value in data set [1] amounted to 73.6%.

For `COc1cc2nc(CCS(C)(=O)=O)cn2cc1NC(=O)c1cccn(C2CC2)c1=O` [Compound 25, 1-cyclopropyl-N-[7-methoxy-2-(2-methylsulfonylethyl)imidazo[1,2-a]pyridin-6-yl]-2-oxo-pyridine-3-carboxamide], in “Thermodynamic solubility” (setting [2]), the solubility thermodynamic at 24 h is 0.0415 mg/mL (≈ 96.4 µM). Further, the “Human (Perc. remaining at 90 min)” value in data set [1] was 95.3%.

As to `CC(C)(O)CCc1cn2cc(NC(=O)c3cccc(C(F)(F)F)n3)c(C(N)=O)cc2n1` [Compound 31, 2-(3-hydroxy-3-methyl-butyl)-6-[[6-(trifluoromethyl)pyridine-2-carbonyl]amino]imidazo[1,2-a]pyridine-7-carboxamide], the solubility thermodynamic at 24 h in “Thermodynamic solubility” (setting [3]) was > 1 mg/mL; in “Thermodynamic solubility” (setting [2]) it was 0.00297 mg/mL (≈ 6.82 µM); in “Thermodynamic solubility” (setting [4]), 0.0044 mg/mL (≈ 10.1 µM). Also, the “Human (Perc. remaining at 90 min)” value in data set [1] turned out to be 94.9%.

As to `COCCc1cn2cc(NC(=O)c3cccc(C(F)(F)F)n3)c(OC)cc2n1` [Compound 35, N-[7-methoxy-2-(2-methoxyethyl)imidazo[1,2-a]pyridin-6-yl]-6-(trifluoromethyl)pyridine-2-carboxamide], the solubility thermodynamic at 24 h in the data set “Thermodynamic solubility” (setting [2]) is < 0.03 mg/mL. For the same molecule, the “Human (Perc. remaining at 90 min)” value in data set [1] was determined as 64.9%.

Regarding `CCOc1c(NC(=O)c2cccn(C3CC3)c2=O)cn2cc(CCC(C)(C)O)nc2c1F` [Compound 37, 1-cyclopropyl-N-[7-ethoxy-8-fluoro-2-(3-hydroxy-3-methyl-butyl)imidazo[1,2-a]pyridin-6-yl]-2-oxo-pyridine-3-carboxamide], the solubility thermodynamic at 24 h in “Thermodynamic solubility” (setting [3]) is > 1 mg/mL; in the data set “Thermodynamic solubility” (setting [2]), 0.0705 mg/mL (≈ 159 µM). The “Human (Perc. remaining at 90 min)” value in data set [1] is given as 99.7%.

Take `COc1c(NC(=O)c2cccn(C3CC3)c2=O)cn2cc(CCC(C)(C)O)nc2c1F` [Compound 42, 1-cyclopropyl-N-[8-fluoro-2-(3-hydroxy-3-methyl-butyl)-7-methoxy-imidazo[1,2-a]pyridin-6-yl]-2-oxo-pyridine-3-carboxamide]: the solubility thermodynamic at 24 h in the data set “Thermodynamic solubility” (setting [3]) is > 1 mg/mL; in “Thermodynamic solubility” (setting [2]), 0.181 mg/mL (≈ 422 µM); in the data set “Thermodynamic solubility” (setting [4]), 0.612 mg/mL (≈ 1430 µM). For the same molecule, in data set [1], the “Human (Perc. remaining at 90 min)” value is on record as 96.75%.

The values are drawn from patent US20220194938A1, “NOVEL COMPOUNDS AND PHARMACEUTICAL COMPOSITIONS THEREOF FOR THE TREATMENT OF INFLAMMATORY DISORDERS” (GALAPAGOS NV, priority 2019, published 2022).
